Assay [1] has as its system GTPase domain of the E. coli 23S rRNA. Briefly: Thiostrepton binding assay, E. coli 23S rRNA transcript. Particulars: contains the A at position 1067. The procedure: The binding was specific. It depended to a large extent on the presence of an A residue at the position corresponding to E. coli position 1067. […] A transcript corresponding to the GTPase domain of the cytosolic malaria 28S rRNA also bound thiostrepton poorly.
(§1) Drug binding—Thiostrepton binding to short rRNA transcripts generated in vitro was assayed according to Ryan et al 1991, as modified by Clough et al 1997. […] Before […], samples were incubated on ice for 15 mins in 50 mM imidazole acetate (pH 7.6), 10 mM NH4Cl, 10 mM MgCl2, 1 mM […] and 100 μM GDP, in a final volume of 20 μl.
Having established thiostrepton's activity, we asked “does the antibiotic bind preferentially to the nuclear, mitochondrial or plastid forms of Pf 28/23 S rRNA?”. Evidence that the highest affinity interaction of thiostrepton is with 23S rRNApl was obtained from an in vitro binding assay (Ryan et al 1991). Short transcripts of wild type (wt) RNA corresponding to the GTPase domain of Pf 23S rRNApl (nts 987-1078) were transcribed in vitro from a PCR product that included a T7 promoter sequence in one of the primers. Mutated malarial rRNA sequences (E.coli numbers A1067U and A1067G) were obtained by PCR methodology and transcribed in the same way. Both wild type and modified transcript sequences were verified prior to thiostrepton binding assays. […]

Assay [2] concerns GTPase domain of Pf 23S rRNApl. The assay can be described thus: Thiostrepton filter binding assay, transcripts of the GTPase domain of Pf 23S rRNApl (wild type and mutated). The arrangement: species or system Plasmodium falciparum. The protocol: (§2) A) Short 23S transcripts of P.falciparum (Pf) wild type rRNApl (open circle A1067) and mutated forms (open square A1067U and filled triangle A1067G), as well as Pf 28S rRNA transcripts (filled square), are compared with an optimized E.coli control transcript (filled circle). For convenience, nucleotide numbers correspond to E.coli.
as §1
Having established thiostrepton's activity, we asked “does the antibiotic bind preferentially to the nuclear, mitochondrial or plastid forms of Pf 28/23 S rRNA?”. Evidence that the highest affinity interaction of thiostrepton is with 23S rRNApl was obtained from an in vitro binding assay (Ryan et al 1991). Short transcripts of wild type (wt) RNA corresponding to the GTPase domain of Pf 23S rRNApl (nts 987-1078) were transcribed in vitro from a PCR product that included a T7 promoter sequence in one of the primers. Mutated malarial rRNA sequences (E.coli numbers A1067U and A1067G) were obtained by PCR methodology and transcribed in the same way. Both wild type and modified transcript sequences were verified prior to thiostrepton binding assays. A positive control transcript was used based on the 23S rRNA sequence of E.coli with a mutation (U1061A) that increases stability and binding. […] An intermediate level of binding (˜35% of wt) was obtained with the mutation Pfpl (E.coli number A1067G). Thiostrepton binding to a transcript corresponding to the GTPase domain (nt 1334-1427) of the cytosolic Pf 28S rRNA was ˜10% of that for Pf 23S rRNApl.

For assay [3], the system named is GTPase domain of the 23S rRNApl of Toxoplasma gondii. Briefly: Thiostrepton filter binding assay, T. gondii 23S rRNApl transcripts. The procedure: B) T. gondii wild type rRNApl transcript (filled triangle) and mutated transcript (open triangle) compared with control transcripts from P.falciparum rRNApl (open circle) and E.coli (filled circle).
as §1
In the same way, we tested a transcript corresponding to the GTPase domain of the 23S rRNApl of Toxoplasma gondii (Tg), a related apicomplexan that is an important opportunistic pathogen in patients with AIDS. […] This was found also to be the case with a transcript derived from a PCR product covering the GTPase domain of Tgpl 23S rRNA (nt 926-1024) (FIG. 8B). Corrective mutation of the Tgpl transcript (E. coli number […]) conferred a significant increase (×5) in thiostrepton binding (FIG. 8B).

Assay [4] concerns erythrocytic stages of P.falciparum. Briefly: Incorporation of radiotracers (3H-hypoxanthine, 14C-isoleucine) by P.falciparum growing in blood cultures. Format: cell-based, Plasmodium falciparum. The protocol: Antibiotics—Samples of Mocimycin (kirromycin), Aurodox (N-methylated kirromycin), and Efrotomycin (a glycoside of kirromycin) were used. Aurodox was dissolved in RPMI-Albumax medium (Grande et al 1977), kirromycin was dissolved in RPMI made alkaline by addition of 1M NaOH, and efrotomycin was dissolved in ethanol before dilution in culture medium. Enacyloxin IIA was dissolved in 1% NaHCO3 prior to dilution in RPMI-Albumax medium. The antibiotic GE2270A was dissolved in 100% DMSO before dilution in culture medium. Fusidic acid (Sigma) was dissolved directly in culture medium, and thiostrepton (Sigma) in 100% DMSO before dilution in culture medium. A hemisuccinate form of thiostrepton was prepared as a potassium salt, according to Bodanszky et al 1965. Incorporation of radiotracers by P.falciparum growing in blood cultures in the presence and absence of drugs was carried out as described (Strath et al 1993).
Kirromycin: Kirromycin-resistant forms of bacterial EF-Tu are modified at one of seven amino acids along the opposing interfaces of domains I and III (Mesters et al 1994 and Abdulkarim et al 1994) and Pf EF-Tupl has a substitution at one of these sites (A375S-E.coli numbers) that could potentially confer resistance to kirromycin. To test this possibility, kirromycin (Mocimycin), its methylated derivative Aurodox or its disaccharide derivative Efrotomycin were incubated with erythrocytic stages of P.falciparum grown in cultures over a 36 hr period. The incorporation of both ^3H-hypoxanthine and ^14C-isoleucine was inhibited in a dose-dependent fashion, maximum inhibition being achieved at 100 μM kirromycin (FIG. 5). […] Once maximal depression of incorporation had been reached at any particular dose of drug, residual incorporation continued at a uniform rate thereafter. Vital staining with rhodamine 123, a fluorescent dye that concentrates within the mitochondrion (Divo et al. 1985) confirmed the parasiticidal effect, loss of specific mt staining being evident within 2-3 hours (data not shown). […] Blood cultures of P.falciparum were about 10 times more sensitive to the antibiotic than a gram-positive bacterium (Corynebacterium spp) used in parallel bioassays.

Assay [5] relates to GTPase domain of the cytosolic Pf 28S rRNA. Briefly: Thiostrepton filter binding assay, cytosolic Pf 28S rRNA transcript. More on the design: species or system Plasmodium falciparum. To be noted: GTPase domain nt 1334-1427. The protocol: as §2, §1
Having established thiostrepton's activity, we asked “does the antibiotic bind preferentially to the nuclear, mitochondrial or plastid forms of Pf 28/23 S rRNA?”. Evidence that the highest affinity interaction of thiostrepton is with 23S rRNApl was obtained from an in vitro binding assay (Ryan et al 1991). Short transcripts of wild type (wt) RNA corresponding to the GTPase domain of Pf 23S rRNApl (nts 987-1078) were transcribed in vitro from a PCR product that included a T7 promoter sequence in one of the primers. Mutated malarial rRNA sequences (E.coli numbers A1067U and A1067G) were obtained by PCR methodology and transcribed in the same way. […]

For `C=C(NC(=O)C(=C)NC(=O)c1csc(C2=N[C@@H]3c4csc(n4)[C@H]4NC(=O)c5csc(n5)[C@H]([C@](C)(O)[C@@H](C)O)NC(=O)[C@H]5CSC(=N5)/C(=C/C)NC(=O)[C@H]([C@@H](C)O)NC(=O)c5csc(n5)[C@]3(CC2)NC(=O)[C@H](C)NC(=O)C(=C)NC(=O)[C@H](C)NC(=O)[C@H]([C@@H](C)CC)N[C@@H]2C=Cc3c([C@H](C)O)cc(nc3[C@H]2O)C(=O)O[C@@H]4C)n1)C(N)=O` [thiostrepton], in assay [1], the “thiostrepton binding to E. coli transcript” value is recorded as “bind thiostrepton strongly”. For the same molecule, the “thiostrepton binding, mutation A1067G” value in assay [2] (Pfpl transcript, E.coli number A1067G) is reported as ~35 % of wt. Also, the “thiostrepton binding, mutation A1067U” value in assay [2] (Pfpl transcript, E.coli number A1067U) is on record as ~14 % of wt. Also, the “thiostrepton binding to wild type transcript” value in assay [2] (short transcript of the GTPase domain, malaria plastid) is given as “bound thiostrepton strongly”. In assay [3] (Tgpl transcript, E. coli number U1077A versus wild type), the “increase in thiostrepton binding by corrective mutation U1077A” value is on record as 5 ×. In addition, the “thiostrepton binding to wild type Tgpl transcript” value in assay [3] (wild type has substitution E.coli number A1077U, nt 926-1024) is on record as “inhibits binding”. Also, the “onset of inhibition of protein synthesis” value in assay [4] came out at 5 h. The IC50 in assay [4] (Plasmodium falciparum, 3 h, read-out: 50% inhibition of uptake of 3H-hypoxanthine and 14C-isoleucine) was in the range of 3 to 5 µM. Further, the “thiostrepton binding to Pf 28S rRNA transcript relative to Pf 23S rRNApl” value in assay [5] is on record as approximately 10%.

The values are drawn from patent US20020058266A1, “EF-Tu protein encoded on the plastid DNA of the malaria parasite and protein synthesis inhibitors effective as anti-malarial compounds” (priority 1997, published 2002).
